According to US4826845A, “3(2H)-pyridazinones and pharmaceutical compositions thereof” (Richter Gedeon Vegyeszeti Gyar T.R., priority 1985, dated 1989):
Structures can show the parent of a compound that is named as a salt. Where two headings read alike, the source gives them in different places.

How the values were obtained:
[1] = Acute toxicity in rats; conditions: rat, in vivo
From the text: Male and female CFY rats and mice were used.

[2] = tested on: renal artery; experiment: Renal arterial vascular resistance in anaesthetized dogs; assay type: in vivo, Beagle dog
Description: Beagle dogs of both sexes were anaesthetized by the intravenous administration of 40 mg/kg of sodium pentobarbital. A cannula was introduced to the femoral artery and vein each on one side for the intravenous administration of the compounds to be tested as well as for measuring the blood pressure.
In an other series of these experiments, the substances were administered through a duodenal tube. Similarly to the experiments carried out on cats, the systemic arterial blood pressure was measured by using an electromanometer and the cardiotachometer was triggered by the heart rate wave sign.
The renal artery on one side was exposed retroperitoneally and fitted with an electromagnetic flow-meter head for measuring the blood flow of the renal arterial vascular bed and for determining the local vascular resistance.

[3] = tested on: anaesthetized cats; experiment: Measurement of the hypotensive effect on anaesthetized cats (i.v. screening); assay type: in vivo, cat
Description: A tube was introduced into the trachea of cats anaesthetized by the intraperitoneal (i.p.) administration of 35 mg/kg of sodium pentobarbital whereby the spontaneous breathing was supported. On the one side of the animals, the femoral artery and vein were exposed and a polyethylene cannula was introduced in both vessels each. The substances to be tested were administered through the venous cannula. The mean arterial blood pressure was measured by connecting the arterial cannula with a Statham P 23 Db pressure transducer and electromanometer.
As a first screening dose, 5 mg/kg of the compounds to be tested were intravenously (i.v.) administered.

O=c1cccnn1CCCNCC1COc2ccccc2O1 (stereo not shown) [Example 3 (or 12), 2-[3-(benzo[1,4]dioxan-2-yl-methylamino)-1-propyl]-3(2H)-pyridazinone hydrochloride]
LD50 at 336 h ([1]; ip, female, i.p., read-out: LD50 i.p.): 97.8 mg/kg
LD50 at 336 h ([1]; ip, male, i.p., read-out: LD50 i.p.): 116 mg/kg
LD50 at 336 h ([1]; po, female, p.o., read-out: LD50 p.o.): 400 mg/kg
LD50 at 336 h ([1]; po, male, p.o., read-out: LD50 p.o.): 600 mg/kg
peripheral vasodilatory action in the renal vascular bed compared with prazosine (in words) [2]: reached or eventually surpassed the activity of prazosine
peripheral vasodilatory action in the renal vascular bed compared with verapamil (in words) [2]: stronger effects than verapamil
decrease in resistance of the renal artery ([2]; 1 mg/kg i.v.): about 40%
decrease in resistance of the renal artery ([2]; 1.0 mg/kg intraduodenal): about 40%
Mean arterial pressure decrease ([3]; anaesthetized cats, 5.0 mg/kg i.v.): -95 Hgmm
blood pressure lowering action (in words) ([3]; intravenous, summary of Table 1): particularly expressed
